Here are results for 79 molecules from the METLIN SMRT retention time set (Domingo-Almenara et al. 2019).

The series is described as follows: gradient 5% acetonitrile 3 min, to 50% in 2 min, to 85% in 15 min, held 3 min, 100 µL/min. The note with it: column: Zorbax Extend-C18 2.1 x 50 mm; eluents: water / acetonitrile, 0.1% formic acid. In outline:
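Each retention time is based on an adduct peak selected computationally and verified by manual inspection. Measurements used HPLC–quadrupole time-of-flight mass spectrometry in positive and negative ionization mode on mixtures of ~100 pure standards. Chromatography ran on a Zorbax Extend-C18 column (2.1 × 50 mm, 1.8 μm) at 100 μL/min with water and acetonitrile, each containing 0.1% formic acid, and dead and dwell volumes of 40 μL and 900 μL.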
Molecule `CCN1c2cc(F)ccc2C(=O)NC12CCN(C(=O)c1ccc(OC)cc1OC)CC2` came in with an RP-LC retention time of 781 s.
Molecule `Cc1nn2c(CNS(=O)(=O)Cc3ccccc3Cl)c(-c3ccccc3)nc2s1` returned an RP-LC retention time of 919 s.
The molecule `O=C(O)Cn1c(C(=O)Nc2nc(-c3ccccc3Cl)cs2)cc2ccccc21` returned an RP-LC retention time of 1130 s.
Regarding `O=C(Cn1cnc2c(nc3n2CCCCC3)c1=O)N1CCN(c2ccc(Cl)cc2)CC1`, the RP-LC retention time turned out to be 750 s.
Next, `CCc1noc2nc(C)n(CC(=O)NCc3ccc(OC(C)C)cc3)c(=O)c12`: 661 s.
Consider `O=c1c2cnc3nc(-c4ccc(Cl)cc4)nn3c2ccn1CCCO`, for which the RP-LC retention time came out at 714 s.
In the case of `COC(=O)c1cccc(NC(=O)Cn2nc3c(N4CCC(C)CC4)nccn3c2=O)c1`, the RP-LC retention time turned out to be 786 s.
Next, `CNC(=O)c1ccc(Cn2cnc3cccnc32)cc1`: 572 s; `CCCCOc1ccc(C(=O)Nc2cc(C)no2)cc1`: 908 s.
`Cc1ccc(C)c(S(=O)(=O)N2CCCN(c3ccc(=O)n(-c4ccccc4)n3)CC2)c1`: the RP-LC retention time came out at 947 s.
Next, `CCc1ccccc1NC(=O)C1CCN(S(=O)(=O)c2cc(C(=O)N3CCCC3)cs2)CC1`: 799 s; `O=C(COc1ccc(NC(=O)C2CC2)cn1)NC1CCN(Cc2ccccc2)CC1`: 590 s; `Cc1cn2c(S(=O)(=O)N3CCC4(CC3)OCCO4)c(C(C)C)nc2s1`: 891 s.
Next, `CCc1ccc2c(c1)-c1ccccc1S(=O)(=O)N2CC(=O)NCc1ccccn1`: 720 s; `COc1ccc(NC(=O)NCC(c2cccnc2)c2cn(C)c3ccccc23)c(OC)c1` (centres undefined): 697 s.
For `Cn1cnc(S(=O)(=O)N2CCC(c3noc(-c4ccccn4)n3)C2)c1` (centres undefined), the RP-LC retention time came to 622 s.
Next, `COCCN1C(=O)CCc2cc(NC(=O)Cc3ccc(Cl)cc3)ccc21`: 806 s; `COc1ccc(-n2ncc3c(=O)n(Cc4nc(-c5ccc(Br)cc5)no4)cnc32)cc1`: 1090 s.
Next, `CCOc1ccc2nc(NC(=O)C3CCN(C(=O)C4Sc5ccccc5NC4=O)CC3)sc2c1` (centres undefined): 826 s; `CCOc1ccc(-c2cc3c(=O)n(Cc4nc(-c5ccc(OC(C)C)cc5)no4)ncn3n2)cc1`: 1260 s.
Consider `O=C(c1ccccc1Cl)N1CCN(c2cc(-c3cccs3)[nH]n2)CC1`, for which the RP-LC retention time turned out to be 789 s.
`COc1cccc(-c2nc(C3CC(=O)N(c4ccc(F)c(Cl)c4)C3)no2)c1` (centres undefined) had an RP-LC retention time of 1100 s.
Next, `CCC(C)NC(=O)c1nc2cc(C)c(C)cc2n(C)c1=O` (centres undefined): 798 s; `O=C(NCCOc1ccc2nnc(-c3ccccc3Cl)n2n1)c1cccs1`: 664 s; `CCOC(=O)c1ccc(Nc2c(-c3cccc(Cl)c3)nc3cnccn23)cc1`: 978 s.
`CC(=O)N1CCc2ccc(NC(=O)c3cccc(Br)c3)cc21` yielded an RP-LC retention time of 774 s.
Next, `COC(=O)[C@@H]1Cc2c([nH]c3ccccc23)C(c2ccccc2C)N1` (some centres undefined): 685 s; `CN(C1CCc2nn(Cc3ccccc3)c(=O)n2CC1)S(C)(=O)=O` (centres undefined): 666 s; `COC(=O)c1cc2c(=O)n(-c3nc4cc(C)c(C)cc4s3)ccc2nc1C`: 1420 s.
Next, `Cc1cc(F)ccc1NC(=O)c1cc(C(C)C)n2nccc2n1`: 1140 s; `O=C(c1ccc(CS(=O)c2ccc(Br)cc2)o1)N1CCN(c2ccccn2)CC1` (centres undefined): 580 s.
`O=C(NC1CC1)C1CCCN(C(=O)c2ccccc2)C1` (centres undefined) came in with an RP-LC retention time of 619 s.
`CSc1cccc(NC(=O)N2CCc3c(c(C(=O)N4CCCC4)nn3C)C2)c1` registered an RP-LC retention time of 971 s.
Next, `COC(=O)c1ccc(NC(=O)CSc2nnc3c4cc(-c5ccccc5)nn4ccn23)cc1`: 1060 s; `CCn1c(SCC(=O)Nc2nc(-c3ccccc3)cs2)nnc1-c1nonc1NC(C)=O`: 897 s; `Cc1ccc(-c2nc(N)n(C(=O)C(C)(C)C)n2)cc1`: 1080 s.
Next, `COc1ccc(CCC(=O)N2CCC(C(=O)NCCc3csc(-c4cccs4)n3)CC2)cc1`: 826 s.
Consider `COc1cccc(N2CCN(C(=O)c3cc(NC(=O)C(C)C)cc4nc(C)ccc34)CC2)c1`, for which the RP-LC retention time is 681 s.
Turning to `NC(=O)C1CCN(C(=O)c2cn(-c3cccc(F)c3)nn2)CC1`, the RP-LC retention time is 608 s.
In turn, `Cc1cc(C(=O)NCCc2c[nH]c3ccccc23)c2c(=O)n(C)c(=O)n(C)c2n1` came in with an RP-LC retention time of 742 s.
Next, `CCOc1ccccc1NC(=O)Cn1c(=O)n(-c2cccc(C)c2)c(=O)c2c1cc(C)n2C`: 943 s; `CCN1C(=O)c2cccnc2Sc2cc(NC(=O)c3c(F)cccc3F)ccc21`: 808 s.
Next, `Cc1ccc(-c2ccc(-n3nc(C)c(S(=O)(=O)Nc4ccccc4)c3C)nn2)cc1`: 1060 s.
Next, `Cc1sc2ncnc(SCC(=O)Nc3ccc(S(N)(=O)=O)cc3)c2c1C`: 730 s.
Turning to `Cn1nnc2cc(-c3noc(CNC(=O)c4ccccc4)n3)ccc21`, the RP-LC retention time stood at 708 s.
Next, `Cc1cc(C)c2c(N3CCOCC3)nc(C(=O)N(C)Cc3ccco3)nc2n1`: 611 s.
For `Cc1cccc(NC(=O)N2CCCC2C(=O)NC2CC2)c1` (centres undefined), the RP-LC retention time came out at 655 s.
Next, `O=C(Cn1cccc(-c2nc(-c3ccc(Br)cc3)no2)c1=O)Nc1ccc(F)cc1`: 980 s.
Next, `COc1ccc(-c2cc3nn(CC(=O)Nc4ccc(C)c(C)c4)c(=O)n3c(C)n2)cc1`: 980 s; `CCCNC(=O)C1CCN(c2nc3ccsc3c(=O)n2-c2ccc(C)cc2)CC1`: 756 s; `COc1cc(OC)cc(-c2nnc(Cc3nc(-c4cccc(F)c4)no3)o2)c1`: 907 s.
Turning to `O=C(Cn1nc(N2CCOCC2)c2ccccc2c1=O)Nc1ccc(F)cc1`, the RP-LC retention time is 839 s.
Next, `CCCc1ccc(S(=O)(=O)Nc2ccc3nc(S(=O)(=O)CC)sc3c2)cc1`: 1020 s.
Next, `Cc1nc(-c2ccc(N3CCN(C(=O)c4cc(Cl)ccc4F)CC3)nc2)sc1C`: 990 s; `O=C1NC2(CCN(C(=O)Nc3ccc(Cl)cc3)CC2)N=C1c1cccc(F)c1`: 872 s; `COc1ccc(-c2nnc(N3CCC(C(=O)NCCC(C)C)CC3)o2)cc1`: 838 s.
`CN(C)CCNC(=O)c1ccc(CS(=O)Cc2ccc(Cl)cc2)o1` (centres undefined) displayed an RP-LC retention time of 604 s.
Next, `COc1cccc(N2CCN(S(=O)(=O)c3cc(-c4cc(C(F)(F)F)on4)sc3C)CC2)c1`: 1260 s; `Cc1cc(N2CCN(C)CC2)nc2ccc(NC(=S)NCc3cccs3)cc12`: 576 s.
Next, `Cc1ccc(S(=O)(=O)N2CCCC(C(=O)Nc3cc(-c4nc(C)cs4)sc3C)C2)cc1` (centres undefined): 1060 s.
Next, `CCOC(=O)c1cc(C)nc2c1c(=O)n(Cc1cccc(F)c1)c(=O)n2C`: 1010 s.
In turn, `CCn1cc(-c2ccc(C)cc2)cc1C(=O)NC1CC1` came in with an RP-LC retention time of 991 s.
As to `O=[N+]([O-])c1cccc(-c2nc(N3CCCCCC3)c3ccccc3n2)c1`, the RP-LC retention time stood at 1030 s.
Next, `CCN1CCCCc2cc(C(=O)NC3CCS(=O)(=O)C3)sc21` (centres undefined): 790 s; `CCOc1ccccc1NC(=O)N1CCC2(C1)C(=O)N(C)c1ccccc12` (centres undefined): 902 s; `O=C(c1ccc(OCC2CCN(C(=O)c3cccs3)CC2)cc1)N1CCOCC1`: 747 s.
In the case of `O=C(NCc1cccs1)C1CCN(C(=O)c2cc(-c3ccncc3)n[nH]2)CC1`, the RP-LC retention time worked out at 572 s.
Next, `O=C(CN1C(=O)CN(C(=O)Nc2ccccc2)c2ccccc21)N1CCCc2ccccc21`: 940 s; `Cc1cn(C)nc1C(=O)Nc1nc2ccc(S(C)(=O)=O)cc2s1`: 699 s.
Next, `Cc1cc(C)n(-c2ccnc(NCc3ccc(F)cc3)n2)n1`: 829 s.
Molecule `Cn1c(N2CCCC(C(=O)NCc3ccc4c(c3)OCO4)C2)cc(=O)n(C)c1=O` (centres undefined) registered an RP-LC retention time of 671 s.
In the case of `O=C(COc1ccc(Cl)cc1)Nc1ccccc1NC(=O)c1cccs1`, the RP-LC retention time is 887 s.
Molecule `CSc1ccc(-c2nc3ncccn3c2Nc2ccccc2)cc1` came in with an RP-LC retention time of 777 s.
`Cc1ccc(-n2nnnc2CNC(=O)c2cc(Br)ccc2Cl)cc1` returned an RP-LC retention time of 835 s.
As for `Cc1cc(C)cc(NC(=O)N2CCCC(Cn3cnc4cccnc43)C2)c1` (centres undefined), the RP-LC retention time came out at 680 s.
For the molecule `O=S(=O)(NC1CCCCC1)c1ccc(-c2nnc(C3CCCC3)o2)o1`, the RP-LC retention time is 1020 s.
Next, `COCC1CN(S(=O)(=O)c2cccc(C#N)c2)CC12CCNCC2` (centres undefined): 609 s; `CC(C)NC(=O)C1CCN(c2cncnc2N2CCOCC2)CC1`: 570 s; `O=C(NC(c1ccccc1)c1nnc(N2CCCCC2)o1)c1ccc2c(c1)OCO2` (centres undefined): 847 s.
